From patent US9695155B2, “Herbicidal substituted pyrimidinyloxy benzene compounds” (E. I. DU PONT DE NEMOURS AND COMPANY, priority 2013, dated 2017)

Experiments:
johnsongrass = assay: Test C postemergence; format: in vivo, Sorghum halepense; conditions: for Plant response rating (0 to 100), Johnsongrass: 16 g ai/ha, 0 is no effect, 100 is complete control; for Johnsongrass plant response rating: 31 g ai/ha; for Johnsongrass plant response rating / Plant response rating, Johnsongrass: scale 0 to 100 (0 no effect, 100 complete control)
In short: (§1)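 Injury was assessed visually against controls 13 to 15 days after application, with 0 meaning no effect and 100 full control; missing entries are shown as a dash. Preemergence sprays hit seeded loam–sand soil, postemergence sprays hit 1- to 4-leaf plants.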

waterhemp = assay: Test C postemergence; format: in vivo, Amaranthus rudis; conditions: for Plant response rating (0 to 100), Waterhemp: 16 g ai/ha, 0 is no effect, 100 is complete control; for Waterhemp plant response rating: 31 g ai/ha; for Waterhemp plant response rating / Plant response rating, Waterhemp: scale 0 to 100 (0 no effect, 100 complete control)
In short: as §1

large (Lg) crabgrass [1] = assay: Test A preemergence; format: in vivo, Digitaria sanguinalis; conditions: for Crabgrass, Large plant response rating (0 to 100 scale): 125 g ai/ha; for Crabgrass, Large plant response rating: 500 g ai/ha, 0 to 100 scale where 0 is no effect and 100 is complete control
In short: (§2)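 Injury scores run from 0, no effect, to 100, complete control, judged by eye against untreated plants roughly 10 days after treatment. Chemicals carried a surfactant in a non-phytotoxic solvent and went onto loam–sand soil preemergence or onto one- to two-leaf seedlings postemergence.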

wild oat = assay: Test C postemergence; format: in vivo, Avena fatua; conditions: for Plant response rating (0 to 100), Oat, Wild: 16 g ai/ha, 0 is no effect, 100 is complete control; for Oat, Wild plant response rating: 31 g ai/ha; for Oat, Wild plant response rating / Plant response rating, Oat, Wild: scale 0 to 100 (0 no effect, 100 complete control)
In short: as §1

chickweed = assay: Test C postemergence; format: in vivo, Stellaria media; conditions: for Plant response rating (0 to 100), Chickweed: 16 g ai/ha, 0 is no effect, 100 is complete control; for Chickweed plant response rating: 31 g ai/ha; for Chickweed plant response rating / Plant response rating, Chickweed: scale 0 to 100 (0 no effect, 100 complete control)
In short: as §1

blackgrass = assay: Test C postemergence; format: in vivo, Alopecurus myosuroides; conditions: for Plant response rating (0 to 100), Blackgrass: 16 g ai/ha, 0 is no effect, 100 is complete control; for Blackgrass plant response rating: 31 g ai/ha; for Blackgrass plant response rating / Plant response rating, Blackgrass: scale 0 to 100 (0 no effect, 100 complete control)
In short: as §1

giant foxtail [2] = assay: Test A preemergence; format: in vivo, Setaria faberii; conditions: for Foxtail, Giant plant response rating (0 to 100 scale): 125 g ai/ha; for Foxtail, Giant plant response rating: 500 g ai/ha, 0 to 100 scale where 0 is no effect and 100 is complete control
In short: as §2

large (Lg) crabgrass [3] = assay: Test C postemergence; format: in vivo, Digitaria sanguinalis; conditions: for Plant response rating (0 to 100), Crabgrass, Large: 16 g ai/ha, 0 is no effect, 100 is complete control; for Crabgrass, Large plant response rating: 31 g ai/ha; for Crabgrass, Large plant response rating / Plant response rating, Crabgrass, Large: scale 0 to 100 (0 no effect, 100 complete control)
In short: as §1

morningglory [4] = assay: Test A postemergence; format: in vivo, Ipomoea spp.; conditions: 0 to 100 scale where 0 is no effect and 100 is complete control; for Morningglory plant response rating: 125 g ai/ha; for Plant response rating, Morningglory: 500 g ai/ha
In short: as §2

yellow nutsedge = assay: Test C postemergence; format: in vivo, Cyperus esculentus; conditions: for Plant response rating (0 to 100), Nutsedge, Yellow: 16 g ai/ha, 0 is no effect, 100 is complete control; for Nutsedge, Yellow plant response rating: 31 g ai/ha; for Nutsedge, Yellow plant response rating / Plant response rating, Nutsedge, Yellow: scale 0 to 100 (0 no effect, 100 complete control)
In short: as §1

velvetleaf = assay: Test A preemergence; format: in vivo, Abutilon theophrasti; conditions: for Velvetleaf plant response rating (0 to 100 scale): 125 g ai/ha; for Velvetleaf plant response rating: 500 g ai/ha, 0 to 100 scale where 0 is no effect and 100 is complete control
In short: as §2

Italian ryegrass = assay: Test C postemergence; format: in vivo, Lolium multiflorum; conditions: for Plant response rating (0 to 100), Ryegrass, Italian: 16 g ai/ha, 0 is no effect, 100 is complete control; for Ryegrass, Italian plant response rating: 31 g ai/ha; for Ryegrass, Italian plant response rating / Plant response rating, Ryegrass, Italian: scale 0 to 100 (0 no effect, 100 complete control)
In short: as §1

morningglory [5] = assay: Test A preemergence; format: in vivo, Ipomoea spp.; conditions: for Morningglory plant response rating (0 to 100 scale): 125 g ai/ha; for Morningglory plant response rating: 500 g ai/ha, 0 to 100 scale where 0 is no effect and 100 is complete control
In short: as §2

giant foxtail [6] = assay: Test C postemergence; format: in vivo, Setaria faberii; conditions: for Plant response rating (0 to 100), Foxtail, Giant: 16 g ai/ha, 0 is no effect, 100 is complete control; for Foxtail, Giant plant response rating: 31 g ai/ha; for Foxtail, Giant plant response rating / Plant response rating, Foxtail, Giant: scale 0 to 100 (0 no effect, 100 complete control)
In short: as §1

corn = assay: Test C postemergence; format: in vivo, Zea mays; conditions: for Plant response rating (0 to 100), Corn: 16 g ai/ha, 0 is no effect, 100 is complete control; for Corn plant response rating: 31 g ai/ha; for Corn plant response rating / Plant response rating, Corn: scale 0 to 100 (0 no effect, 100 complete control)
In short: as §1

[7] = postemergence, visual rating, 13 to 15 days
[8] = 125 g ai/ha, postemergence, visual rating
[9] = Postemergence, 62 g ai/ha, 13 to 15 days

Fc1cnc(Oc2ccccc2-n2cc(C(F)F)cn2)nc1 [Compound 228]
50: Plant response rating, Chickweed (chickweed; [8]) | Plant response rating, Chickweed (chickweed; [9])
75: Plant response rating, Waterhemp (waterhemp; [8])
80: Morningglory plant response rating (morningglory [4]) | Morningglory plant response rating (morningglory [5])
70: Velvetleaf plant response rating (0 to 100 scale) (velvetleaf)
60: Plant response rating, Waterhemp (waterhemp; [9])
10: Plant response rating, Johnsongrass (johnsongrass; [8]) | Plant response rating (0 to 100), Chickweed (chickweed; postemergence) | Plant response rating, Ryegrass, Italian (Italian ryegrass; [8]) | Morningglory plant response rating (0 to 100 scale) (morningglory [5])
0: Johnsongrass plant response rating (johnsongrass; [7]) | Plant response rating (0 to 100), Oat, Wild (wild oat; postemergence) | Oat, Wild plant response rating (wild oat; [7]) | Plant response rating, Oat, Wild (wild oat; [9]) | Plant response rating (0 to 100), Blackgrass (blackgrass; postemergence) | Blackgrass plant response rating (blackgrass; [7]) | Plant response rating, Blackgrass (blackgrass; [9]) | Plant response rating (0 to 100), Crabgrass, Large (large (Lg) crabgrass [3]; postemergence) | Plant response rating (0 to 100), Nutsedge, Yellow (yellow nutsedge; postemergence) | Nutsedge, Yellow plant response rating (yellow nutsedge; [7]) | Plant response rating (0 to 100), Ryegrass, Italian (Italian ryegrass; postemergence) | Ryegrass, Italian plant response rating (Italian ryegrass; [7]) | Plant response rating, Ryegrass, Italian (Italian ryegrass; [9]) | Plant response rating (0 to 100), Foxtail, Giant (giant foxtail [6]; postemergence) | Foxtail, Giant plant response rating (giant foxtail [6]; [7]) | Plant response rating, Foxtail, Giant (giant foxtail [6]; [9]) | Plant response rating (0 to 100), Corn (corn; postemergence) | Corn plant response rating (corn; [7]) | Plant response rating, Corn (corn; [9])
30: Chickweed plant response rating (chickweed; [7])
15: Plant response rating (0 to 100), Waterhemp (waterhemp; postemergence)
45: Waterhemp plant response rating (waterhemp; [7])
5: Plant response rating (0 to 100), Johnsongrass (johnsongrass; postemergence) | Plant response rating, Johnsongrass (johnsongrass; [9]) | Plant response rating, Oat, Wild (wild oat; [8]) | Crabgrass, Large plant response rating (large (Lg) crabgrass [3]; [7]) | Plant response rating, Crabgrass, Large (large (Lg) crabgrass [3]; [8]) | Plant response rating, Crabgrass, Large (large (Lg) crabgrass [3]; [9]) | Plant response rating, Nutsedge, Yellow (yellow nutsedge; [8]) | Plant response rating, Nutsedge, Yellow (yellow nutsedge; [9]) | Plant response rating, Foxtail, Giant (giant foxtail [6]; [8]) | Plant response rating, Corn (corn; [8])
40: Plant response rating, Blackgrass (blackgrass; [8])
100: Crabgrass, Large plant response rating (large (Lg) crabgrass [1]) | Foxtail, Giant plant response rating (giant foxtail [2]) | Plant response rating, Morningglory (morningglory [4]) | Velvetleaf plant response rating (velvetleaf)
90: Crabgrass, Large plant response rating (0 to 100 scale) (large (Lg) crabgrass [1]) | Foxtail, Giant plant response rating (0 to 100 scale) (giant foxtail [2])

FC(F)c1cnn(-c2c(Br)cccc2Oc2ncc(Cl)cn2)c1 [Compound 232]
85: Plant response rating, Waterhemp (waterhemp; [8])
70: Plant response rating, Waterhemp (waterhemp; [9])
10: Plant response rating (0 to 100), Blackgrass (blackgrass; postemergence) | Plant response rating, Ryegrass, Italian (Italian ryegrass; [8]) | Corn plant response rating (corn; [7]) | Plant response rating, Corn (corn; [9])
100: Crabgrass, Large plant response rating (large (Lg) crabgrass [1]) | Velvetleaf plant response rating (velvetleaf)
15: Plant response rating, Foxtail, Giant (giant foxtail [6]; [8]) | Plant response rating, Corn (corn; [8])
90: Crabgrass, Large plant response rating (0 to 100 scale) (large (Lg) crabgrass [1]) | Foxtail, Giant plant response rating (0 to 100 scale) (giant foxtail [2]) | Foxtail, Giant plant response rating (giant foxtail [2]) | Plant response rating, Morningglory (morningglory [4]) | Morningglory plant response rating (morningglory [5])
30: Chickweed plant response rating (chickweed; [7])
25: Plant response rating, Blackgrass (blackgrass; [8])
20: Plant response rating, Oat, Wild (wild oat; [8]) | Velvetleaf plant response rating (0 to 100 scale) (velvetleaf) | Morningglory plant response rating (0 to 100 scale) (morningglory [5])
60: Plant response rating, Chickweed (chickweed; [8])
0: Plant response rating (0 to 100), Johnsongrass (johnsongrass; postemergence) | Johnsongrass plant response rating (johnsongrass; [7]) | Plant response rating (0 to 100), Oat, Wild (wild oat; postemergence) | Oat, Wild plant response rating (wild oat; [7]) | Blackgrass plant response rating (blackgrass; [7]) | Plant response rating (0 to 100), Ryegrass, Italian (Italian ryegrass; postemergence) | Ryegrass, Italian plant response rating (Italian ryegrass; [7])
5: Plant response rating, Johnsongrass (johnsongrass; [8]) | Plant response rating, Johnsongrass (johnsongrass; [9]) | Plant response rating, Oat, Wild (wild oat; [9]) | Plant response rating (0 to 100), Chickweed (chickweed; postemergence) | Plant response rating, Blackgrass (blackgrass; [9]) | Plant response rating (0 to 100), Crabgrass, Large (large (Lg) crabgrass [3]; postemergence) | Crabgrass, Large plant response rating (large (Lg) crabgrass [3]; [7]) | Plant response rating, Crabgrass, Large (large (Lg) crabgrass [3]; [8]) | Plant response rating, Crabgrass, Large (large (Lg) crabgrass [3]; [9]) | Plant response rating (0 to 100), Nutsedge, Yellow (yellow nutsedge; postemergence) | Nutsedge, Yellow plant response rating (yellow nutsedge; [7]) | Plant response rating, Nutsedge, Yellow (yellow nutsedge; [8]) | Plant response rating, Nutsedge, Yellow (yellow nutsedge; [9]) | Plant response rating, Ryegrass, Italian (Italian ryegrass; [9]) | Plant response rating (0 to 100), Foxtail, Giant (giant foxtail [6]; postemergence) | Foxtail, Giant plant response rating (giant foxtail [6]; [7]) | Plant response rating, Foxtail, Giant (giant foxtail [6]; [9]) | Plant response rating (0 to 100), Corn (corn; postemergence)
65: Plant response rating (0 to 100), Waterhemp (waterhemp; postemergence) | Waterhemp plant response rating (waterhemp; [7])
80: Morningglory plant response rating (morningglory [4])
50: Plant response rating, Chickweed (chickweed; [9])
